# Reference: patent US20150329519A1, “Formulations Comprising Lipoyl Compounds” (Ischemix, LLC, priority 2014, published 2015)
# Tests used:
# [1] = tested on: patients with stable coronary artery disease undergoing elective stent placement by PCI; assay: Randomized placebo-controlled study of single IV dose in patients undergoing elective stent placement by PCI (CK-MB, Troponin-T); format: in vivo, human; details: for Troponin-T (ng/mL) - Change from baseline (FAP population), Mean / Troponin-T (ng/mL) - Change from baseline (FAP population), Median / Troponin-T (ng/mL), Mean / Troponin-T (ng/mL), Median: Day 1 (24 hours)
# Protocol: A prospective, multi-center, blinded, randomized, placebo-controlled study to evaluate single dose regimens of a 10 mg/mL (R)Lip-EA-OH formulation for IV administration or single dose placebo in patients with stable coronary artery disease undergoing elective stent placement by PCI meeting all the eligibility criteria was conducted. The (R)Lip-EA-OH formulation was made in accordance with Example 3 and was administered at one of three doses: 0.8 mg/kg, 1.6 mg/kg and 2.4 mg/kg. The primary objective was to assess the safety of the (R)Lip-EA-OH formulation, ascertained by measuring the changes in CK-MB values up to 24 hours after the last balloon inflation. The secondary objective was to evaluate reduction of myocardial injury associated with stent PCI, as determined by serial measurements of cardiac biomarkers and as determined by continuous and serial ECG readings.
# The primary outcome measure was the change in CK-MB at 24 hours after the last balloon inflation and it served as a surrogate marker for myocardial injury considered for safety and efficacy. CK-MB levels were measured on Day 1 at 0, 6, 12, 18, and 24 hours after the last balloon inflation.
# The maximum serum concentration of CK-MB (Cmax) is calculated by subtracting the baseline value from the maximum concentration of CK-MB measured at any time point. CK-MB Cmax is correlated to the extent of myocardial injury associated with the PCI. The greatest Cmax value observed was in the placebo group.
# [2] = Polymer content by HPLC area counts after formulation or salt formation; format: physicochemical
# Protocol: The purity of a lipoyl compound was analyzed by reversed-phase high performance liquid chromatography (HPLC). Mobile phase A was 0.1% triflouroacetic acid (TFA) in H2O and mobile phase B was 0.1% TFA in acetontrile (ACN). A linear gradient of 85:15 to 26:74 over 22 minutes at a flow rate of 1.5 mL/min at 30° C. was used. A lipoyl compound was diluted in ethanol:water (1:1) at a concentration of 1 mg/mL and a 25 μL aliquot was injected onto the HPLC. The sample was detected at 220 nm.
# The initial procedure used to formulate (R)Lip-EA-OH consisted of the following sequence: • 1. Neutralize solid (R)Lip-EA-OH by treatment with aqueous sodium bicarbonate or sodium hydroxide; • 2. Dilute with water and saline to near the final volume and concentration; and • 3. Adjust pH and add water to final volume and concentration.
# This formulation procedure was used effectively to prepare formulation from multiple lots of (R)Lip-EA-OH that were synthesized at scales below 50 g. As the synthetic process was scaled-up, however, partial polymerization of (R)Lip-EA-OH was observed during formulation. […]
# Since (R)Lip-EA-OH was converted to the corresponding bis-sodium salt in situ during formulation, a procedure for synthesizing the bis-sodium salt of (R)Lip-EA-OH was examined. […] The isolated polymer was treated with the reducing agent dithiothreitol (DTT), and the resulting sample was analyzed by HPLC. […]
# [3] = tested on: myocardial damage associated with percutaneous coronary intervention; details: human trial, Kates et al. 2014; cited from earlier work
# [4] = 2.4 mg/kg dose group compared with other groups
# [5] = 0.8, 1.6 or 2.4 mg/kg versus placebo, following PCI
compound,measurement,setting,value
"C[C@H](NC(=O)[C@H](CCC(=O)O)NC(=O)CCCC[C@@H]1CCSS1)C(=O)O [(R)Lip-EA-OH, α-N—[(R)-1,2-diothiolane-3-pentanoyl]-L-glutamyl-L-alanine]","CK-MB (ng/mL) - Change from Baseline, Mean","[1]; 0.8 mg/kg single IV dose of 10 mg/mL formulation, 6 hr after last balloon inflation",0.12 ng/mL
same,"CK-MB (ng/mL) - Change from Baseline, Mean","[1]; 0.8 mg/kg single IV dose of 10 mg/mL formulation, 12 hr after last balloon inflation",1.63 ng/mL
same,"CK-MB (ng/mL) - Change from Baseline, Mean","[1]; 0.8 mg/kg single IV dose of 10 mg/mL formulation, 18 hr after last balloon inflation",1.87 ng/mL
same,"CK-MB (ng/mL) - Change from Baseline, Mean","[1]; 0.8 mg/kg single IV dose of 10 mg/mL formulation, 24 hr after last balloon inflation",1.80 ng/mL
same,"Troponin-T (ng/mL) - Change from baseline (FAP population), Mean",[1]; 0.8 mg/kg,0.041 ng/mL
same,"Troponin-T (ng/mL) - Change from baseline (FAP population), Median",[1]; 0.8 mg/kg,0.000 ng/mL
same,"Troponin-T (ng/mL), Mean",[1]; 0.8 mg/kg,0.042 ng/mL
same,"Troponin-T (ng/mL), Median",[1]; 0.8 mg/kg,0.000 ng/mL
same,"CK-MB (ng/mL) - Change from Baseline, Mean","[1]; 1.6 mg/kg single IV dose of 10 mg/mL formulation, 6 hr after last balloon inflation",0.76 ng/mL
same,"CK-MB (ng/mL) - Change from Baseline, Mean","[1]; 1.6 mg/kg single IV dose of 10 mg/mL formulation, 12 hr after last balloon inflation",1.95 ng/mL
same,"CK-MB (ng/mL) - Change from Baseline, Mean","[1]; 1.6 mg/kg single IV dose of 10 mg/mL formulation, 18 hr after last balloon inflation",2.55 ng/mL
same,"CK-MB (ng/mL) - Change from Baseline, Mean","[1]; 1.6 mg/kg single IV dose of 10 mg/mL formulation, 24 hr after last balloon inflation",2.54 ng/mL
same,"Troponin-T (ng/mL) - Change from baseline (FAP population), Mean",[1]; 1.6 mg/kg,0.068 ng/mL
same,"Troponin-T (ng/mL) - Change from baseline (FAP population), Median",[1]; 1.6 mg/kg,0.000 ng/mL
same,"Troponin-T (ng/mL), Mean",[1]; 1.6 mg/kg,0.066 ng/mL
same,"Troponin-T (ng/mL), Median",[1]; 1.6 mg/kg,0.000 ng/mL
same,CK-MB Cmax as an indicator of injury,[1]; [4],least amount of injury
same,"Efficacy markers of periprocedural injury (changes in Troponin-T, CK-MB AUC0-24, Cmax of CK-MB)",[1]; [4],lowest
same,"CK-MB (ng/mL) - Change from Baseline, Mean","[1]; 2.4 mg/kg single IV dose of 10 mg/mL formulation, 6 hr after last balloon inflation",-0.10 ng/mL
same,"CK-MB (ng/mL) - Change from Baseline, Mean","[1]; 2.4 mg/kg single IV dose of 10 mg/mL formulation, 12 hr after last balloon inflation",0.10 ng/mL
same,"CK-MB (ng/mL) - Change from Baseline, Mean","[1]; 2.4 mg/kg single IV dose of 10 mg/mL formulation, 18 hr after last balloon inflation",0.30 ng/mL
same,"CK-MB (ng/mL) - Change from Baseline, Mean","[1]; 2.4 mg/kg single IV dose of 10 mg/mL formulation, 24 hr after last balloon inflation",0.44 ng/mL
same,"Troponin-T (ng/mL) - Change from baseline (FAP population), Mean",[1]; 2.4 mg/kg,0.018 ng/mL
same,"Troponin-T (ng/mL) - Change from baseline (FAP population), Median",[1]; 2.4 mg/kg,0.000 ng/mL
same,"Troponin-T (ng/mL), Mean",[1]; 2.4 mg/kg,0.019 ng/mL
same,"Troponin-T (ng/mL), Median",[1]; 2.4 mg/kg,0.000 ng/mL
same,Maximum CK-MB change from baseline (FIG. 3),[1]; [5],less myocardial injury than patients in the placebo group
same,Troponin T change from baseline in the full analysis population (FIG. 4),[1]; [5],less myocardial injury than patients in the placebo group
same,Efficacy in reducing myocardial injury / cardioprotective action,"[1]; patients undergoing stent PCI, 0.8, 1.6 or 2.4 mg/kg",demonstrated efficacy in reducing the myocardial injury
same,Polymer based upon HPLC area counts,"[2]; after formulation by the initial procedure (solid neutralized, then diluted), FIG. 1",> 20%
same,Polymer by HPLC area count analysis,"[2]; initially, before formulation",< 0.1%
same,Protection against myocardial damage associated with percutaneous coronary intervention,[3],statistically significant protection
